Structures can show the parent of a compound that is named as a salt. Where two headings read alike, the source gives them in different places.

Holding throughout (format): cell-based, human
The test system of experiment [1] is MCF7 (Mammary Gland, Adenocarcinoma). Briefly: Cell viability analysis, breast cancer MCF7. The conditions noted are these: Homo sapiens, MCF7, 72 h.
In experiment [2] the test system is cancer cell lines. As to the kind of experiment: Cell viability analysis (WST-1) on cancer cell lines. The settings on record: drug 10 μM, 72 hours, WST-1; Table 3.
Experiment [3] relates to HL-60 (Acute Promyelocytic Leukemia). Briefly: Cell viability analysis, leukemia HL-60. The conditions noted are these: Homo sapiens, HL-60, 72 h.
Experiment [4] has as its system TSGH-8301 (Urinary Bladder Carcinoma). Briefly: Cell viability analysis, bladder cancer TSGH-8301. The conditions noted are these: Homo sapiens, 72 h.
Experiment [5] deals with A549 (Lung Adenocarcinoma). Briefly: Cell viability analysis, lung cancer A549. The settings on record: Homo sapiens, A549, 72 h.
Experiment [6] concerns AGS (Gastric Adenocarcinoma). Briefly: Cell viability analysis, gastric cancer AGS. The settings on record: Homo sapiens, 72 h.
Experiment [7] concerns MKN-45 (Gastric Adenocarcinoma). Briefly: Cell viability analysis, gastric cancer MKN-45. The settings on record: Homo sapiens, MKN-45, 72 h.
For experiment [8], the system named is HeLa (Cervix Adenocarcinoma). As to the kind of experiment: Cell viability analysis, cervical cancer HeLa. The settings on record: Homo sapiens, HeLa, 72 h.
Experiment [9] has as its system A375 (Amelanotic Melanoma). Briefly: Cell viability analysis, skin cancer A375. The settings on record: Homo sapiens, A-375, 72 h.
In experiment [10] the test system is PC3 (p53−) (Prostate Adenocarcinoma). As to the kind of experiment: Cell viability analysis, prostate cancer PC3. The conditions noted are these: Homo sapiens, 72 h.
In experiment [11] the test system is HepG2 (Hepatocellular Carcinoma). Briefly: Cell viability analysis, hepatic cancer HepG2. The conditions noted are these: Homo sapiens, HepG2, 72 h.
In experiment [12] the test system is LoVo (Colorectal Adenocarcinoma). Briefly: Cell viability analysis, colon cancer LoVo. The settings on record: Homo sapiens, LoVo, 72 h, read-out: cell viability (survival rate), LoVo, drug 10 μM, 72 hours, WST-1, OD450 nm. Background: Formazan colour is commonly taken as a measure of viable cells.
Experiment [13] deals with HI650 (Lung Adenocarcinoma). As to the kind of experiment: Cell viability analysis, lung cancer HI650. The settings on record: Homo sapiens, NCI-H1650, 72 h.
[14] abbreviates: drug 10 μM, 72 hours, WST-1, OD450 nm, read-out: cell viability (survival rate), MCF7.
Setting [15] is: drug 10 μM, 72 hours, WST-1, OD450 nm, read-out: cell viability (survival rate), HL-60.
Setting [16] is: drug 10 μM, 72 hours, WST-1, OD450 nm, read-out: cell viability (survival rate), TSGH.
Setting [17] is: drug 10 μM, 72 hours, WST-1, OD450 nm, read-out: cell viability (survival rate), A549.
Setting [18] is: drug 10 μM, 72 hours, WST-1, OD450 nm, read-out: cell viability (survival rate), AGS.
[19] abbreviates: drug 10 μM, 72 hours, WST-1, OD450 nm, read-out: cell viability (survival rate), MKN-45.
The mark [20] stands for this setting: drug 10 μM, 72 hours, WST-1, OD450 nm, read-out: cell viability (survival rate), HeLa.
[21] abbreviates: drug 10 μM, 72 hours, WST-1, OD450 nm, read-out: cell viability (survival rate), A375.
[22] abbreviates: drug 10 μM, 72 hours, WST-1, OD450 nm, read-out: cell viability (survival rate), PC3.
The mark [23] stands for this setting: drug 10 μM, 72 hours, WST-1, OD450 nm, read-out: cell viability (survival rate), HepG2.
The mark [24] stands for this setting: drug 10 μM, 72 hours, WST-1, OD450 nm, read-out: cell viability (survival rate), H1650.
Setting [25] is: read-out: cell viability (survival rate), MCF7, drug 10 μM, 72 hours, WST-1, OD450 nm.
Where [26] appears, read: read-out: cell viability (survival rate), HL-60, drug 10 μM, 72 hours, WST-1, OD450 nm.
Setting [27] is: read-out: cell viability (survival rate), TSGH, drug 10 μM, 72 hours, WST-1, OD450 nm.
The mark [28] stands for this setting: read-out: cell viability (survival rate), A549, drug 10 μM, 72 hours, WST-1, OD450 nm.
Where [29] appears, read: read-out: cell viability (survival rate), AGS, drug 10 μM, 72 hours, WST-1, OD450 nm.
The mark [30] stands for this setting: read-out: cell viability (survival rate), MKN-45, drug 10 μM, 72 hours, WST-1, OD450 nm.
Where [31] appears, read: read-out: cell viability (survival rate), HeLa, drug 10 μM, 72 hours, WST-1, OD450 nm.
[32] abbreviates: read-out: cell viability (survival rate), A375, drug 10 μM, 72 hours, WST-1, OD450 nm.
The mark [33] stands for this setting: read-out: cell viability (survival rate), PC3, drug 10 μM, 72 hours, WST-1, OD450 nm.
Setting [34] is: read-out: cell viability (survival rate), HepG2, drug 10 μM, 72 hours, WST-1, OD450 nm.
[35] abbreviates: read-out: cell viability (survival rate), H1650, drug 10 μM, 72 hours, WST-1, OD450 nm.

On to `CC[C@H]1OC(=O)C[C@@H](O)[C@H](C)[C@@H](O[C@@H]2O[C@H](C)[C@@H](O)[C@H](N(C)C)[C@H]2O)[C@@H](CCN2C[C@H](C)C[C@H](C)C2)C[C@@H](C)C(=O)/C=C/C(C)=C/[C@@H]1CO[C@@H]1O[C@H](C)[C@@H](O)[C@@H](OC)[C@H]1OC` [Tilmicosin], for which the viability (in general, a read-out of living cells in per cent, often relative to untreated cells) at 10 µM is 39.1% in [1] (setting [14]); 75% in experiment [3] (setting [15]); 56.5% in experiment [4] (setting [16]); 53.5% in experiment [5] (setting [17]); 102% in experiment [6] (setting [18]); 52.1% in experiment [7] (setting [19]). For the same compound, the viability at 10 µM in experiment [8] (setting [20]) was found to be 67%; in experiment [9] (setting [21]) it was 54.7%; in experiment [10] (setting [22]), 81.5%; in experiment [11] (setting [23]), 92.1%; in [12] it was 83.8%; in experiment [13] (setting [24]), 72.7%. For the same compound, the “inhibition effect on different cancer cell lines” value in experiment [2] is recorded as “significant inhibition effect”.

Take `C[N+]1(C)[C@@H]2C[C@@H](OC(=O)C(O)(c3cccs3)c3cccs3)C[C@H]1[C@@H]1O[C@@H]12` [Tiotropium Bromide hydrate]: the viability at 10 µM in experiment [1] (setting [25]) is 80%; in experiment [3] (setting [26]), 87.8%; in [4] (setting [27]), 54.7%; in [5] (setting [28]), 62%; in experiment [6] (setting [29]), 73.1%; in experiment [7] (setting [30]), 86.1%. Moreover, the viability at 10 µM in experiment [8] (setting [31]) is 124%; in experiment [9] (setting [32]) it was 86.3%; in experiment [10] (setting [33]), 83.8%; in experiment [11] (setting [34]), 90.9%; in [12], 88.7%; in [13] (setting [35]), 40.9%. The “inhibition effect on different cancer cell lines” value in [2] is listed as “significant inhibition effect”.

As for `CC(=O)Oc1cc(C(F)(F)F)ccc1C(=O)O` [Triflusal], the viability at 10 µM is 97.8% in experiment [1] (setting [25]); 93.3% in experiment [3] (setting [26]); 86.5% in experiment [4] (setting [27]); 112% in [5] (setting [28]); 93.3% in experiment [6] (setting [29]); 134% in experiment [7] (setting [30]). Moreover, the viability at 10 µM in experiment [8] (setting [31]) came out at 105%; in experiment [9] (setting [32]), 95.9%; in [10] (setting [33]) it was 87.5%; in experiment [11] (setting [34]) it was 103%; in experiment [12], 103%; in experiment [13] (setting [35]), 81.3%. Moreover, the “inhibition effect on different cancer cell lines” value in [2] was “significant inhibition effect”.

`COc1cc(Cc2cnc(N)nc2N)cc(OC)c1OC` [Trimethoprim]: the viability at 10 µM in [1] (setting [25]) was determined as 104%; in experiment [3] (setting [26]), 96.8%; in experiment [4] (setting [27]) it was 92.4%; in [5] (setting [28]), 125%; in experiment [6] (setting [29]), 97.7%; in experiment [7] (setting [30]), 73.6%. For the same compound, the viability at 10 µM is 89% in experiment [8] (setting [31]); 83.6% in experiment [9] (setting [32]); 151% in [10] (setting [33]); 102% in experiment [11] (setting [34]); 98.7% in experiment [12]; 108% in [13] (setting [35]). In [2], the “inhibition effect on different cancer cell lines” value was “significant inhibition effect”.

As to `CC(C)[C@H](N)C(=O)OCCOCn1cnc2c(=O)[nH]c(N)nc21` [Valaciclovir HCl], the viability at 10 µM in experiment [1] (setting [14]) came to 67.8%; in [3] (setting [15]), 103%; in [4] (setting [16]) it was 83.9%; in [5] (setting [17]), 126%; in experiment [6] (setting [18]), 110%; in [7] (setting [19]), 91.6%. The viability at 10 µM came out at 109% in experiment [8] (setting [20]); 95.6% in experiment [9] (setting [21]); 68.3% in experiment [10] (setting [22]); 110% in [11] (setting [23]); 97% in experiment [12]; 90.6% in experiment [13] (setting [24]). Also, in [2], the “inhibition effect on different cancer cell lines” value is reported as “significant inhibition effect”.

`C=C[C@]1(C)C[C@@H](OC(=O)CSC(C)(C)CNC(=O)[C@H](N)C(C)C)[C@]2(C)[C@H](C)CC[C@]3(CCC(=O)[C@H]32)[C@@H](C)[C@@H]1O` [Valnemulin HCl]: the viability at 10 µM came out at 66.7% in experiment [1] (setting [25]); 93.3% in experiment [3] (setting [26]); 66.9% in experiment [4] (setting [27]); 62.2% in [5] (setting [28]); 75.5% in experiment [6] (setting [29]); 91.4% in experiment [7] (setting [30]). Moreover, the viability at 10 µM in experiment [8] (setting [31]) amounted to 117%; in [9] (setting [32]) it was 57.1%; in experiment [10] (setting [33]) it was 83.4%; in experiment [11] (setting [34]), 126%; in experiment [12], 73.6%; in experiment [13] (setting [35]) it was 78.8%. Besides, the “inhibition effect on different cancer cell lines” value in experiment [2] was “significant inhibition effect”.

On to `Nc1ncnc2c1ncn2[C@@H]1O[C@H](CO)[C@@H](O)[C@@H]1O` [Vidarabine (Vira-A), Vidarabine], for which the viability at 10 µM in experiment [1] (setting [25]) is 36.5%; in experiment [3] (setting [26]), 99%; in experiment [4] (setting [27]) it was 68.6%; in [5] (setting [28]), 32.2%; in experiment [6] (setting [29]), 104%; in [7] (setting [30]) it was 44.4%. Further, the viability at 10 µM in experiment [8] (setting [31]) turned out to be 47.7%; in experiment [9] (setting [32]), 48.1%; in experiment [10] (setting [33]), 70.6%; in [11] (setting [34]), 74.2%; in experiment [12], 72.9%; in experiment [13] (setting [35]), 78.8%. For the same compound, the “inhibition effect on different cancer cell lines” value in [2] was “significant inhibition effect”.

Consider `CC(=O)N[C@H]1[C@H]([C@H](O)[C@H](O)CO)OC(C(=O)O)=C[C@@H]1N=C(N)N` [Zanamivir (Relenza), Zanamivir], for which the viability at 10 µM in experiment [1] (setting [14]) worked out at 69.6%; in [3] (setting [15]), 146%; in experiment [4] (setting [16]) it was 88.5%; in [5] (setting [17]), 93%; in experiment [6] (setting [18]) it was 75.1%; in experiment [7] (setting [19]) it was 85.8%. Further, the viability at 10 µM in [8] (setting [20]) came to 71.8%; in [9] (setting [21]), 51.5%; in [10] (setting [22]), 106%; in experiment [11] (setting [23]) it was 110%; in [12] it was 77.3%; in experiment [13] (setting [24]), 62.7%. Besides, the “inhibition effect on different cancer cell lines” value in [2] is reported as “significant inhibition effect”.

On to `CCS(=O)(=O)CCn1c([N+](=O)[O-])cnc1C` [tinidazole], for which the viability at 10 µM turned out to be 88% in [1] (setting [25]); 89% in experiment [3] (setting [26]); 112% in experiment [4] (setting [27]); 79.5% in experiment [5] (setting [28]); 104% in experiment [6] (setting [29]); 100% in experiment [7] (setting [30]). Also, the viability at 10 µM was found to be 97.8% in experiment [8] (setting [31]); 60.6% in [9] (setting [32]); 85.6% in [10] (setting [33]); 95.5% in experiment [11] (setting [34]); 78.5% in experiment [12]; 91.1% in experiment [13] (setting [35]). For the same compound, the “inhibition effect on different cancer cell lines” value in experiment [2] was “significant inhibition effect”.
